Assay results taken from US10100056B2, “SHIP1 modulators and methods related thereto” (Aquinox Pharmaceuticals (Canada) Inc., priority 2013, dated 2018).

Legend:
His-hSHIP1 enzyme = molecular target: T1, His-hSHIP1 enzyme (Homo sapiens, UniProt Q92835); experiment: His-hSHIP1 activity (phosphatase assay, IP4 substrate, Biomol Green); type: biochemical; set-up: key to Scoring, Approach 2 (Initial velocity Ratio): +++: higher than reference or reference - 15%; ++: reference - 16% to reference - 30%; +: reference - 31% or lower; −: inhibitor; details: second approach: ratio of initial velocities IP4 25/250 μM compared with reference compound; values without asterisk
T1 construct: His
T1 sequence (Q92835 1-1189): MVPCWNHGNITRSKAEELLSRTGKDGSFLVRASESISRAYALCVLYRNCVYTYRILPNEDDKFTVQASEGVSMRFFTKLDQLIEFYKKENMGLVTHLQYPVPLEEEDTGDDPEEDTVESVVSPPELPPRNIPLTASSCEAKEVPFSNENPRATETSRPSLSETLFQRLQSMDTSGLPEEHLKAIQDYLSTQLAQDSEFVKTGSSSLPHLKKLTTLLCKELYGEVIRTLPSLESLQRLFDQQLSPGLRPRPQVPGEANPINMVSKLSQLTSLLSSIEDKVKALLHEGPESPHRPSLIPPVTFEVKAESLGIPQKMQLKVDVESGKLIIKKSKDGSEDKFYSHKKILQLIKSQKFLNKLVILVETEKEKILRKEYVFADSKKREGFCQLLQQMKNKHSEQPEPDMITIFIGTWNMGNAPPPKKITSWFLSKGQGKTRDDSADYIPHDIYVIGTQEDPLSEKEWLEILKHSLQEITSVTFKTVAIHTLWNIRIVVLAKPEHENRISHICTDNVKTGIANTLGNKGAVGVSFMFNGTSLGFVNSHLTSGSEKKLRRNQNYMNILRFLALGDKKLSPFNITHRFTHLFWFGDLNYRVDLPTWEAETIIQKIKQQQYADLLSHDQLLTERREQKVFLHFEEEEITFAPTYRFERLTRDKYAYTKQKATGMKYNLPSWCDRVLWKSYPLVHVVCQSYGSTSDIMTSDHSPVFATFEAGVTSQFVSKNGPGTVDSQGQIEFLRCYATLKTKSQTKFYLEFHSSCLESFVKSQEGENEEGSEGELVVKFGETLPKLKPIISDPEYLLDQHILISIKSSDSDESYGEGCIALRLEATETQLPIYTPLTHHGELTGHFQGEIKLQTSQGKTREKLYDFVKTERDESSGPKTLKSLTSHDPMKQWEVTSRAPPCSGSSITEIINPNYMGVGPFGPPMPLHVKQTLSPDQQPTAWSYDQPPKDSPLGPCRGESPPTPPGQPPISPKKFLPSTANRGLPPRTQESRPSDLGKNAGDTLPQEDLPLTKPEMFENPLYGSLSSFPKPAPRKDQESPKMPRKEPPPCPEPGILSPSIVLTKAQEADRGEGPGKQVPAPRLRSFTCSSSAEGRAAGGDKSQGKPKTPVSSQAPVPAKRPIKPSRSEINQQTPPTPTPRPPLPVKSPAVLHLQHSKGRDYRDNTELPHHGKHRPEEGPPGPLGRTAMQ
Method: Test compounds are dissolved in 95% ethanol to form stock solutions. Before screening, the stock solutions are diluted with Phosphatase Assay Buffer (20 mM Tris-HCL, 10 mM MgCl2 pH 7.5, 0.02% Tween 20) to form working assay solutions that contain 10% ethanol. The assay is carried out on 96-well microtiter plates using a modified procedure of that reported by Ong et al., Blood 110, 1942-1949, 2007 and Yang et al., Org Lett 7, 1073-1076, 2005, both of which references are incorporated herein by reference in their entirety.
Data were generated by one of two variant methods. Test compounds are screened by one of two approaches described as follows. In the first approach, each reaction contains 5 μL of His-hSHIP1 enzyme (5-20 ng), 10 μL of the substrate, 1,3,4,5-inositol tetrakisphosphate (IP4; 50 μM final), 5 μL of Phosphatase Assay Buffer, and 5 µL of test compound at various concentrations in 10% ethanol (0-300 μM final). Control blanks are also prepared by replacing His-hSHIP1 enzyme, IP4, or test compounds with Phosphatase Assay Buffer. After adding the reaction components in a 96-well microtiter plate on ice, the reaction is mixed by briefly shaking the plate vigorously. The reaction is then incubated at 37° C. for 15 min with gentle shaking followed by addition of 100 μL of Biomol Green Reagent (BIOMOL, PA, USA) to terminate the reaction. The free phosphate released from IP4 by His-hSHIP1 binds to the Biomol Green Reagent, which turns the dye to green color. After incubating the mixture for 20 min at room temperature for color development, the absorbance is read with SpectraMax Plus 96-well plate reader (Molecular Devices, Sunnyvale, Calif., USA) at a wavelength of 650 nm.
In the second approach, a master mix is prepared that contains 50 μL of His-hSHIP1 enzyme (0.4-1.6 ng/μL final), 25 μL of the substrate, IP4 (25 or 250 μM final), and 50 μL of test compound in 3.3% ethanol (100 μL final). Control blanks are also prepared by replacing His-hSHIP1 enzyme, IP4, or test compounds with Phosphate Assay Buffer. […] Each reaction component is preincubated at 37° C. for 30 min before adding to a 96-well microtiter plate. The master mix is then incubated at 37° C. At time 0, 20, and 30 min, 25 μL of the master mix is removed and transferred to a new 96-well microtiter plate, to which 100 μL of Biomol Green Reagent is added to stop the reaction. After incubating the mixture for 20 min at room temperature for color development, the absorbance is read with SpectraMax Plus 96-well plate reader at a wavelength of 650 nm. Phosphate released is plotted against time to calculate the initial velocities (i.e., slope of the graph) at each IP4 concentration. The initial velocities are baseline corrected and the ratio of initial velocities (IP425/IP4250) is calculated and used to rate the test compounds.

[1] = system: Akt phosphorylation in Molt-4 (PTEN-/SHIP1+) cells; experiment: Akt phosphorylation in lymphocytes (Western blot, IGF-1 stimulated); type: cell-based; set-up: key: +: inhibits Akt phosphorylation at 30 μM; −: no effect on Akt phosphorylation at 30 μM; details: 30 μM; Molt-4 (SHIP1+) cells, IGF-1 100 ng/mL
Method: Molt-4 (PTEN-/SHIP1+) cells are starved in serum free RPMI for overnight. In a 15 mL conical tube, 2-3 million serum starved cells (1 million cells per mL) are treated with various concentrations of test compound ([…]) for 30 min at 37° C. followed by stimulation with 100 ng/mL of IGF-1 for 1 hour at 37° C. After stimulation, cells are washed once with ice-cold DPBS and lysed with Lysis Buffer (20 mM Tris-HCl, pH 7.5, 140 mM NaCl, 1% NP-40, Complete Mini Protease Inhibitor Cocktail, 10 mM NaF, 1 mM Na3VO4, 1 mM β-glycerolphosphate) on ice for 30 min with vortexing every 10 min. Samples are then centrifuged at 13,000 rpm for 20 min, and supernatants are collected as total cell lysate samples. Protein concentration is determined using bicinchonic acid assay, and about 15 μg of total protein from each sample is loaded and separated on a 4-12% Tris-Glycine gel. After SDS-PAGE, proteins are transferred from the gel to a nitrocellulose membrane. The membrane is blocked in 5% BSA in PBS containing 0.1% Tween-20 (PBS-T) for 1 hour at room temperature before probing with primary antibodies for overnight at 4° C. The following antibodies are used: mouse anti-SHIP1 (1:500 dilution; Santa Cruz, Calif., USA), rabbit anti-phospho-Akt (Ser473) (1:1000 dilution; Cell Signaling Technologies, MA, USA), rabbit anti-Akt (1:1000; Cell Signaling Technologies, MA, USA), and rabbit anti-actin (1:2000; Cell Signaling Technologies, MA, USA). The membrane is then incubated with goat anti-rabbit or anti-mouse secondary antibodies (1:3000) for 1 hour at room temperature. Target proteins on the membrane are detected with ECL solution and exposed on a film.

SMILES	Scoring, Approach 2 (Initial velocity Ratio) (His-hSHIP1 enzyme)	Molt-4 (SHIP+): inhibition of Akt phosphorylation [1]
CC1(C)CCC2=C1CC[C@H]([C@@]1(C)CC[C@H](O)C[C@@H]1CO)[C@H]2CNCC1CC1 [Cpd. No. 2, (1S,3S,4R)-4-((4R,5S)-4-((cyclopropylmethylamino)methyl)-1,1-dimethyl-2,3,4,5,6,7-hexahydro-1H-inden-5-yl)-3-(hydroxymethyl)-4-methylcyclohexanol]	+	
C=C1CC[C@H]2[C@H](CC(N)=O)[C@@H]([C@@]3(C)CC[C@H](O)C[C@@H]3CO)CC[C@]12C [Cpd. No. 90, 2-((3aS,4R,5S,7aS)-5-((1R,2S,4S)-4-hydroxy-2-(hydroxymethyl)-1-methylcyclohexyl)-7a-methyl-1-methyleneoctahydro-1H-inden-4-yl)acetamide]		+
C=C1CC[C@H]2[C@H](O)[C@@H]([C@@]3(C)CC[C@H](O)C[C@@H]3CCC#N)CC[C@]12C [Cpd. No. 94, 3-((1S,2S,5S)-5-hydroxy-2-((3aR,4R,5R,7aS)-4-hydroxy-7a-methyl-1-methyleneoctahydro-1H-inden-5-yl)-2-methylcyclohexyl)propanenitrile]		+
C=C1CC[C@H]2[C@H](O)[C@@H]([C@@]3(C)CC[C@H](O)C[C@@H]3CCC(N)=O)CC[C@]12C [Cpd. No. 95, 3-((1S,2S,5S)-5-hydroxy-2-((3aR,4R,5R,7aS)-4-hydroxy-7a-methyl-1-methyleneoctahydro-1H-inden-5-yl)-2-methylcyclohexyl)propanamide]		+
C=C1CC[C@H]2[C@H](O)[C@@H]([C@@]3(C)CC[C@H](O)C[C@H]3CCC(=O)O)CC[C@]12C [Cpd. No. 97, 3-((1R,2S,5S)-5-hydroxy-2-((3aR,4R,5R,7aS)-4-hydroxy-7a-methyl-1-methyleneoctahydro-1H-inden-5-yl)-2-methylcyclohexyl)propanoic acid]		+
C=C1CC[C@H]2[C@H](C(=O)O)[C@@H]([C@@]3(C)CC[C@H](O)C[C@H]3CO)CC[C@]12C [Cpd. No. 98, (3aS,4R,5S,7aS)-5-((1R,2R,4S)-4-hydroxy-2-(hydroxymethyl)-1-methylcyclohexyl)-7a-methyl-1-methyleneoctahydro-1H-indene-4-carboxylic acid]		+

More lines, main results first:

Scoring, Approach 2 (Initial velocity Ratio) (His-hSHIP1 enzyme)	SMILES	Molt-4 (SHIP+): inhibition of Akt phosphorylation [1]
+	CC(=O)NC[C@H]1C2=C(CC[C@@H]1[C@@]1(C)CC[C@H](O)C[C@@H]1CO)C(C)(C)CC2 [Cpd. No. 4, N-(((4R,5S)-5-((1R,2S,4S)-4-hydroxy-2-(hydroxymethyl)-1-methylcyclohexyl)-1,1-dimethyl-2,3,4,5,6,7-hexahydro-1H-inden-4-yl)methyl)acetamide]	
+++	CNC[C@H]1C2=C(CC[C@@H]1[C@@]1(C)CC[C@H](O)C[C@@H]1CO)C(C)(C)CC2 [Cpd. No. 5, (1S,3S,4R)-4-((4R,5S)-1,1-dimethyl-4-((methylamino)methyl)-2,3,4,5,6,7-hexahydro-1H-inden-5-yl)-3-(hydroxymethyl)-4-methylcyclohexanol]	
+	CC1(C)CCC2=C1CC[C@H]([C@@]1(C)CC[C@H](O)C[C@@H]1CO)[C@H]2CNS(C)(=O)=O [Cpd. No. 7, N-(((4R,5S)-5-((1R,2S,4S)-4-hydroxy-2-(hydroxymethyl)-1-methylcyclohexyl)-1,1-dimethyl-2,3,4,5,6,7-hexahydro-1H-inden-4-yl)methyl)methanesulfonamide]	
+	CC1(C)CCC2=C1CC[C@H]([C@@]1(C)CC[C@H](O)C[C@@H]1CO)[C@H]2CNC(=O)c1ccccc1 [Cpd. No. 8, N-(((4R,5S)-5-((1R,2S,4S)-4-hydroxy-2-(hydroxymethyl)-1-methylcyclohexyl)-1,1-dimethyl-2,3,4,5,6,7-hexahydro-1H-inden-4-yl)methyl)benzamide]	
−	C=C1CC[C@H]2[C@H](CNCc3ccc(F)cc3)[C@@H]([C@@]3(C)CC[C@H](O)C[C@@H]3CO)CC[C@]12C [Cpd. No. 10, (1S,3S,4R)-4-((3aS,4R,5S,7aS)-4-((4-fluorobenzylamino)methyl)-7a-methyl-1-methyleneoctahydro-1H-inden-5-yl)-3-(hydroxymethyl)-4-methylcyclohexanol]	
++	C=C1CC[C@H]2[C@H](CNCc3ccccc3C)[C@@H]([C@@]3(C)CC[C@H](O)C[C@@H]3CO)CC[C@]12C [Cpd. No. 15, (1S,3S,4R)-3-(hydroxymethyl)-4-methyl-4-((3aS,4R,5S,7aS)-7a-methyl-4-((2-methylbenzylamino)methyl)-1-methyleneoctahydro-1H-inden-5-yl)cyclohexanol]	
